From patent US20050255458A1, “Drug discovery assays based on the biology of chronic disease” (priority 2002, published 2005)
Read-outs that look alike come from different tables or passages of the source.

Tests used:
U937 = conditions: vs controls, p<0.05; cited from earlier work
HIV-1 [1] = test system: HIV-1; parameters: key to Effect on HIV DNA: ↓↓: Two arrows indicates larger change; conditions: cited from earlier work
HIV-1 [2] = experiment: HIV-1 DNA regression on years since seroconversion (Chun 1997); conditions: therapy including the drug; HIV-1 DNA per 10^6 resting CD4+ T-cells
HIV-1 [3] = experiment: HIV-1 DNA load change over 80 weeks (Bruisten); assay type: in vivo, human; conditions: monotherapy; ddC calculated as ddC+AZT minus AZT
HIV-1 [4] = experiment: Total HIV-1 LTR DNA by PCR (Pauza 1994); conditions: scale of 1 to 5 (1 is lowest)
[5] = in vivo; cited from earlier work
LDLR(−/−) mice = conditions: ≈5 mg/kg/day, 18 weeks; cited from earlier work
TF [6] = conditions: cited from earlier work
human lymphocytes = conditions: 0.1 and 1 mM; cited from earlier work
TF [7] = conditions: 0.5 mg/kg/day, cited from earlier work
leukocytes [8] = conditions: 5-20 mg/kg/day, oral; cited from earlier work
TF [9] = conditions: cited from earlier work; remark: listed apart in the source
c-Rel/p65 = conditions: cited from earlier work
leukocytes [10] = conditions: low concentrations, 20 hours; cited from earlier work
[11] = combination treatment including the drug; cited from earlier work
CD18 = conditions: 10^−8 M for 10 min, vs unstimulated cells; cited from earlier work
Lp(a) = conditions: 2 g administered daily; cited from earlier work
NF-κB [12] = conditions: rabbit, in vivo; cited from earlier work
ACE [13] = biological target: T1, ACE (Homo sapiens, UniProt P12821); parameters: from tissue; host or cells: patients, in vivo; conditions: 5 or 10 mg/day, 4 years, vs placebo; cited from earlier work
apoE(−/−) mice [14] = conditions: ramipril 1 mg/kg/day, 10 weeks; cited from earlier work
ACE [15] = biological target: T1, ACE; parameters: randomly assigned 9,297 high-risk patients; from tissue; host or cells: patients, in vivo; conditions: cited from earlier work
ACE [16] = biological target: T1, ACE; parameters: randomly assigned 9,297 high-risk patients; from tissue; host or cells: patients, in vivo; conditions: cited from earlier work; remark: listed apart in the source
TF mRNA = conditions: obese mice, 10 to 20 weeks of age; cited from earlier work
rabbits = conditions: atherogenic diet; cited from earlier work
rhesus monkeys = conditions: atherogenic diet; cited from earlier work
U251.3 glioma cells = conditions: soluble, 100 μg/ml; fibronectin 10 μg/ml; 24 and 48 hours; cited from earlier work
neutrophils = conditions: cited from earlier work
apoE(−/−) mice [17] = conditions: 500 or 1,000 ng/min/kg, 1 month; cited from earlier work
TF [18] = conditions: in vitro treatment; cited from earlier work
[19] = test system: apolipoprotein E deficient mice; conditions: 0.1 ml of 10^−7M per mouse, intraperitoneally, once a day for 30 days; cited from earlier work
NF-κB [20] = conditions: cited from earlier work

T1 sequence (P12821 30-1306): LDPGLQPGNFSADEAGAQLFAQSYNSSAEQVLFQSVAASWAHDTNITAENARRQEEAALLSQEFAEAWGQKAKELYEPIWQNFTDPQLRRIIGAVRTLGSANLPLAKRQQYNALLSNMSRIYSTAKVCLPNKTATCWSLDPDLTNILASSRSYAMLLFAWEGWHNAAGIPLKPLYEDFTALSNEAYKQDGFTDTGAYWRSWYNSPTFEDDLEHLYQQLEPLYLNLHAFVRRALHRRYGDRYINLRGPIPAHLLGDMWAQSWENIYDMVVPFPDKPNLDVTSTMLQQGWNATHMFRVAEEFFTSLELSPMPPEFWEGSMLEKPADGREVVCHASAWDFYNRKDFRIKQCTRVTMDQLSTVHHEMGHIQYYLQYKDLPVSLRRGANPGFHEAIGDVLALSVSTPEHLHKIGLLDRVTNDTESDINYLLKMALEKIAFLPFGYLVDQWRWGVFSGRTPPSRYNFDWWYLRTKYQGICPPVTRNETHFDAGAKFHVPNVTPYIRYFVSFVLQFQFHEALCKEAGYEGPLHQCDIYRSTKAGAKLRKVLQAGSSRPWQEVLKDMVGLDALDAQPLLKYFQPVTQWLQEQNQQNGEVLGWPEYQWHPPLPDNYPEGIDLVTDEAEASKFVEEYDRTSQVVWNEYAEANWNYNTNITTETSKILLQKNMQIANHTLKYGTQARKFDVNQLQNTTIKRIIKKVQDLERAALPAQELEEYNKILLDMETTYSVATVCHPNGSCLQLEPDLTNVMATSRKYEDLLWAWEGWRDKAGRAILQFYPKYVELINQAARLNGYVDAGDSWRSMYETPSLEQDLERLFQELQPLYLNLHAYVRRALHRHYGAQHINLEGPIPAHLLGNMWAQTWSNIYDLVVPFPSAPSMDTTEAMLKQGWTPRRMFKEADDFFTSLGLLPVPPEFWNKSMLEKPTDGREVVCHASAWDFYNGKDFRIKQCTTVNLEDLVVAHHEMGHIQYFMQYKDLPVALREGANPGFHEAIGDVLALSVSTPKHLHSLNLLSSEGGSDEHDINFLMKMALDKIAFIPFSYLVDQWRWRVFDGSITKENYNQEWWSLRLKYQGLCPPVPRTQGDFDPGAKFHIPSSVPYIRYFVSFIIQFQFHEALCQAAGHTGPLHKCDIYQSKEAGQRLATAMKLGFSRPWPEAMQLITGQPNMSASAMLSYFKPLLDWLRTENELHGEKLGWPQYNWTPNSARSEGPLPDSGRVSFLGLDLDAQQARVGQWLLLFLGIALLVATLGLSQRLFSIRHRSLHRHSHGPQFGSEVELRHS

CC(C)CCC[C@@H](C)[C@H]1CC[C@H]2[C@@H]3C(=O)C=C4C[C@@H](O)CC[C@]4(C)[C@H]3CC[C@]12C [7-ketocholesterol]
GSH content (U937): lower GSH content

Cc1cn([C@H]2C[C@H](N=[N+]=[N-])[C@@H](CO)O2)c(=O)[nH]c1=O [AZT, Zidovudine]
change in viral DNA (HIV-1 [1]; week 80): increase
average difference between expected and observed viral DNA copies (HIV-1 [2]): +317 copies
mean log change from baseline in viral DNA over all time points (HIV-1 [3]): −0.05
average ranking of viral DNA load (HIV-1 [4]): 2.74

CNCCC(Oc1ccc(C(F)(F)F)cc1)c1ccccc1 (stereo not drawn) [Fluoxetine]
effect on body weight [5]: ^IIFluoxetine produces a transient weight loss leading to gain in body weight in the long term.

CCCCNC(=O)NS(=O)(=O)c1ccc(C)cc1 [Tolbutamide]
atherosclerosis [5]: ^IIITolbutamide induced atherosclerosis.

CC(=O)Oc1ccccc1C(=O)O [aspirin, Acetylsalicylic Acid]
decrease in NF-κB binding activity in the aortas (LDLR(−/−) mice): 34%
decrease in the positive area for macrophages (LDLR(−/−) mice): 57%
increase in the positive area for SMC (LDLR(−/−) mice): 77%
TF staining area in plaque (TF [6]; non-smokers): 2.0±2%
TF staining area in plaque (TF [6]; smokers): 4.4±4%
migration of human lymphocytes (human lymphocytes): stimulated migration of human lymphocytes
increase in TF concentration compared to non-smoker mice (Western blotting) (TF [7]): 1.3±0.17 fold
TF immunoreactive area (TF [7]; smoker mice, 8 weeks): 6.5±4.5%
increase of leukocyte migration relative to control values (leukocytes [8]): 20-70%
LPS-induced increase in TF mRNA and protein level (TF [9]): dose-dependently inhibited
LPS-induced translocation of c-Rel/p65 (c-Rel/p65): inhibited the LPS-induced translocation of c-Rel/p65
cell migration (leukocytes [10]): increased cell migration

Nc1ccn([C@H]2CC[C@@H](CO)O2)c(=O)n1 [ddC, zalcitabine]
association with fat redistribution (FR) [11]: significantly associated with the absence of FR
mean log change from baseline in viral DNA over all time points (HIV-1 [3]): −0.1546
average ranking of viral DNA load (HIV-1 [4]): 2.71

OC[C@@H]1CC[C@H](n2cnc3c(O)ncnc32)O1 [ddI, 2′,3′-dideoxyinosine]
association with fat redistribution (FR) [11]: significantly associated with absence of FR
Effect on HIV DNA (HIV-1 [1]; in vivo): ↓↓
average difference between expected and observed viral DNA copies (HIV-1 [2]): −828 copies
average ranking of viral DNA load (HIV-1 [4]): 2.25

CSCC[C@H](NC=O)C(=O)N[C@@H](CC(C)C)C(=O)N[C@@H](Cc1ccccc1)C(=O)O [fMLP, N-formylmethionyl-leucyl-phenylalanine]
increase in CD18 surface membrane concentration (CD18): 4 fold

O=C(O)c1cccnc1 [niacin]
decrease of Lp(a) (Lp(a)): 27%

CCOC(=O)[C@H](CCc1ccccc1)N[C@@H](C)C(=O)N1Cc2ccccc2C[C@H]1C(=O)O [quinapril]
NF-κB activity in atherosclerotic vessels (NF-κB [12]): decreased the NF-κB activity

CCOC(=O)[C@H](CCc1ccccc1)N[C@@H](C)C(=O)N1[C@H](C(=O)O)C[C@@H]2CCC[C@@H]21 [ramipril]
changes in thickness of the common carotid artery wall, or carotid plaque height (ACE [13]): no significant difference
lesion area (apoE(−/−) mice [14]): 6,679±978 μm^2
progression slope of the mean maximum carotid intimal medial thickness (IMT) (ACE [15]; 10 mg/day, 4.5 years): 0.0137±0.0024 mm/year
decrease of progression of carotid intima media thickness (ACE [15]; at 4.5 years): 0.008 mm per year
rate of death from cardiovascular causes (ACE [16]; 10 mg/day, average follow up 4.5 years): 6.1%
rate of cardiac arrest (ACE [16]; 10 mg/day): 0.8%
rate of complications related to diabetes (ACE [16]; 10 mg/day): 6.4%
rate of death from any cause (ACE [16]; 10 mg/day): 10.4%
rate of heart failure (ACE [16]; 10 mg/day): 9.1%
rate of myocardial infarction (ACE [16]; 10 mg/day): 9.9%
rate of revascularization procedures (ACE [16]; 10 mg/day): 16.3%
rate of stroke (ACE [16]; 10 mg/day): 3.4%
RR of cardiac arrest (ACE [16]; vs placebo): 0.62
RR of complications related to diabetes (ACE [16]; vs placebo): 0.84
RR of death from any cause (ACE [16]; vs placebo): 0.84
RR of death from cardiovascular causes (ACE [16]; vs placebo): 0.74
RR of heart failure (ACE [16]; vs placebo): 0.77
RR of myocardial infarction (ACE [16]; vs placebo): 0.80
RR of revascularization procedures (ACE [16]; vs placebo): 0.85
RR of stroke (ACE [16]; vs placebo): 0.68

CCOC(=O)[C@H](CCc1ccccc1)N[C@H]1CS[C@H](c2cccs2)CN(CC(=O)O)C1=O [temocapril]
TF mRNA in cardiac tissue (TF mRNA): attenuated the increase in TF mRNA

CN1CCN(CCCN2c3ccccc3Sc3ccc(C(F)(F)F)cc32)CC1 [trifluoperazine]
rate of lesion formation (rabbits): decreased the rate of lesion formation
rate of lesion formation (rhesus monkeys): decreased the rate of lesion formation

TNC: a large ECM glycoprotein secreted by a variety of cells
migration distance (U251.3 glioma cells): significantly increased migration distance

angiotensin II (DRVYIHPF; Angiotensin-2; UniProt P01019 25-32, looked up)
velocity (neutrophils; concentration of 10^−11): 88 % of maximum velocity
concentration of peak velocity (neutrophils; neutrophils): 10^−10
development of AAA (apoE(−/−) mice [17]): promotes the development of AAA
rate of atherosclerotic lesion formation in the thoracic aorta (apoE(−/−) mice [17]): increases the rate of atherosclerotic lesion formation
TF antigen and mRNA (TF [18]): dose-depended increase in TF antigen and mRNA
lesion area [19]: 5,000 μm^2
NF-κB activation (NF-κB [20]): increased NF-κB activation
